Experimental data as given in patent US20170368052A1, “CRYSTAL FORMS OF APOMORPHINE AND USES THEREOF” (NeuroDerm, Ltd., priority 2014, published 2017).

Tests used:
Assay type in all cases: physicochemical
[1] = Equilibrium desiccator analysis at 75-80% RH; conditions: 75 to 80% RH at 18-23° C., after 1 h
[2] = Process hold-point stability (purity profile)
Description: An optimized non-aqueous procedure is provided below and shown in Scheme 4. • 1. Add apomorphine hydrochloride (1.0 wt), ascorbic acid-6-palmitate (0.01 wt), IPA (30 vol) and stir at 18-23° C. • 2. Vacuum/nitrogen purge the vessel 3× at 18-23° C. and place under a flow of nitrogen. • 3. Heat the slurry to 60-65° C. • 4. Add 3-amino-1-propanol (1.1 eq, 0.25 vol) maintaining 60-70° C. (target 60-65° C.). • 5. As required, cool the reaction mixture to 60-65° C. […] Stir for 15-20 minutes and check for full dissolution. • 7. On full dissolution, clarify the reaction mixture through a ≦1 μm filter and line rinse with IPA (3 vol) at 60-65° C. (Note: the reaction solution is highly unstable to air while hot, therefore total exclusion of air is required.) • 8. Concentrate the reaction mixture under reduced pressure to approximately 10 vol maintaining 55-65° C. • 9. […] Cool the slurry to 68-71° C. and age for 1 h (crystallization is expected during the cool down period approximately 72° C.). • 11. Slow the stirring for the remainder of the preparation to the minimum effective rate and check for crystallization: if crystallization has not occurred, seed the reaction with 0.1 wt % of seeds and age for 1 h. • 12. Cool the slurry to 18-23° C. over 5-6 h at an approximately constant rate. • 13. Age the slurry at 18-23° C. for 2-16 h. • 14. […]

[3] = Stability of the reaction mixture at reflux in IPA with/without ascorbic acid-6-palmitate (HPLC); conditions: solution at reflux with ascorbic acid-6-palmitate
Description: In this case, the base was added under reflux and the procedure compared with and without ascorbic acid-6-palmitate as an antioxidant (Table 7).

CN1CCc2cccc3c2[C@H]1Cc1ccc(O)c(O)c1-3 [A0505-110-D1, apomorphine free base] gave a Weight increase [1] of 2.0 % w/w.

For CN1CCc2cccc3c2C1Cc1ccc(O)c(O)c1-3 (stereo not shown) [A0513-98-01], the “Change in purity profile” value ([2]; reaction mixture held 2 h at reflux (83° C.)) was “no significant change”, the “% area: RRT 1.00” value [3] was 99.83 % area and the “% area: RRT 1.25” value [3] was 0.04 % area. The “% area: RRT 1.71” value [3] was 0.06 % area and the “% area: RRT 1.76” value [3] was 0.04 % area.

In the case of CC(C)O.CN1CCc2cccc3c2C1Cc1ccc(O)c(O)c1-3 (stereo not shown) [A0513-126, apomorphine free base IPA solvate], the “Change in purity profile of the material isolated” value ([2]; distillation over 6 h at 60-65° C.) is reported as “no significant change”.
